The subject of one assay is A431 cells (WT EGFR). The assay is described as follows: Cell proliferation (CellTiter Glo, 72 hr) in A431 cells. In kind it is cell-based. The settings on record: Homo sapiens. As to the method:
(§1) A431 human epidermoid carcinoma, H1975 human NSCLC and HCC827 human NSCLC adenocarcinoma cells were obtained from the American Type Culture Center (Manassas, Va.). A431 cells were grown in DMEM (Invitrogen, Carlsbad, Calif.) supplemented with 10% FBS (HyClone, South Logan, Utah) and 1% Penicillin-Streptomycin (P/S, Lonza, Walkersville, Md.).
(§2) Cells were plated in Growth Media supplemented with 5% FBS and 1% P/S at a density of 3,000 cells per well in 96 well tissue culture plates (Corning). […] Growth inhibition (GI50) values were determined by Graph Pad Prism.

For assay [1], the system named is HCC827 cells (EGFR delE746-A750). The assay can be described thus: Cell proliferation (CellTiter Glo, 72 hr) in HCC827 cells. In kind it is cell-based, human. The settings on record: Homo sapiens, read-out: HCC827 GI50. Here is the method:
as §1, §2

The target of assay [2] is EGFR double mutation L858R/T790M (H1975 cells) (Homo sapiens (Human), UniProt P00533, L858R/T790M). The assay is described as follows: Phospho-EGFR signaling (immunoblotting, 1 hr) in H1975 cells. In kind it is cell-based. The following applies: signaling EC50 WT (A431) / H1975. Here is the method: as §1
All primary antibodies were obtained from Cell Signaling (Danvers, Mass.) and used at 1:1000. Secondary antibodies were used at 1:10,000. Goat anti-mouse IgG IRDye 800CW antibody was obtained from LiCor Biosciences (Lincoln, Nebr.) and goat anti-rabbit IgG Alexa Fluor 680 was obtained from Invitrogen.
Cells were grown in 12-well plates (Corning, Coring, N.Y.) to 90% confluence and then incubated in low-serum (0.1% FBS) media for 16-18 hr. […] A431 cells were then stimulated with 50 ng/ml EGF (Peprotech, Rocky Hill, N.J.) for 15 min. After treatment, cell monolayers were washed with cold PBS (Invitrogen) and immediately lysed by scrapping into 60 uL cold Cell Extraction Buffer (Invitrogen) supplemented with Complete Protease inhibitors (Roche, Indianapolis, Ind.) and PhosphoSTOP (Roche) phosphatase inhibitors.
Phospho-protein signals were quantitated using Odyssey Infrared Imaging (Li-Cor Biosciences).
To assess phosphor-EGFR signaling, blots were probed with rabbit anti-Phospho-EGFR (Y1068) and mouse total anti-EGFR antibodies. Phospho-EGFR signal was normalized to total EGFR expression for each sample. […] Normalized data was fitted using a sigmoidal curve analysis program (Graph Pad Prism version 5) with variable Hill slope to determine the EC50 values.

The subject of assay [3] is H1975 cells (EGFR L858R/T790M). The assay can be described thus: Cell proliferation (CellTiter Glo, 72 hr) in H1975 cells. In kind it is cell-based, human. The following applies: Homo sapiens, read-out: H1975 GI50. Here is the method:
as §1, §2

Setting [4] is: A-431, A431 cells, 72 hr, read-out: WT EGFR GI50.

Like-named read-outs stand apart in the source and are kept apart here. Where only a bound is given, the exact number is not on record here.

`C=CC(=O)Nc1cccc(Nc2nc(Nc3ccc(N4CCN(C(C)=O)CC4)cc3OC(F)(F)F)ncc2C(F)(F)F)c1` [Compound I-33, N-(3-(2-(4-(4-acetylpiperazin-1-yl)-2-(trifluoromethoxy)phenylamino)-5-(trifluoromethyl)pyrimidin-4-ylamino)phenyl)acrylamide]: the concentration for 50% growth inhibition (GI50) in the assay on A431 cells (WT EGFR) (setting [4]) was > 1000 nM; in assay [1] (HCC827 cells, 72 hr) it was 100 to 500 nM; in assay [3] (NCI-H1975, H1975 cells, 72 hr) it was 10 to 100 nM. Besides, the “Ratio WT/mutant (H1975)” value in assay [2] was >50.

In the case of `C=CC(=O)Nc1cccc(Oc2nc(Nc3ccc(N4CCCOCC4)cc3OC)ncc2Cl)c1` [Compound I-37, N-(3-(5-chloro-2-(2-methoxy-4-(1,4-oxazepan-4-yl)phenylamino)pyrimidin-4-yloxy)phenyl)acrylamide], the GI50 in the assay with A431 cells (WT EGFR) (setting [4]) is > 1000 nM; in assay [1] (HCC827 cells, 72 hr), 100 to 500 nM; in assay [3] (NCI-H1975, H1975 cells, 72 hr), 500 to 1000 nM.

As to `C=CC(=O)Nc1cccc(Nc2nc(Nc3ccc(N4CCN(C(=O)CO)CC4)cc3OC)ncc2C(F)(F)F)c1` [Compound I-6, N-(3-(2-(4-(4-(2-hydroxyacetyl)piperazin-1-yl)-2-methoxyphenylamino)-5-(trifluoromethyl)pyrimidin-4-ylamino)phenyl)acrylamide], the GI50 lay in the range of 500 to 1000 nM with A431 cells (WT EGFR) (setting [4]); 10 to 100 nM in assay [1] (HCC827 cells, 72 hr); 10 to 100 nM in assay [3] (NCI-H1975, H1975 cells, 72 hr). Also, the “Ratio WT/mutant (H1975)” value in assay [2] is >20.

Turning to `C=CC(=O)Nc1cccc(Nc2nc(Nc3ccc(N4CCS(=O)(=O)CC4)cc3OC)ncc2C(F)(F)F)c1` [Compound I-49, N-(3-(2-(2-methoxy-4,4-dioxo-4-thiomorpholinophenylamino)-5-(trifluoromethyl)pyrimidin-4-ylamino)phenyl)acrylamide], the GI50 with A431 cells (WT EGFR) (setting [4]) is > 1000 nM; in assay [1] (HCC827 cells, 72 hr) it was 10 to 100 nM; in assay [3] (NCI-H1975, H1975 cells, 72 hr), 100 to 500 nM. Also, the “Ratio WT/mutant (H1975)” value in assay [2] is reported as >20.

Take `C=CC(=O)Nc1cccc(Oc2nc(Nc3ccc(N4CCOCC4)cc3OC)ncc2Cl)c1` [Compound I-5, N-(3-(5-chloro-2-(2-methoxy-4-morpholinophenylamino)pyrimidin-4-yloxy)phenyl)acrylamide]: the GI50 with A431 cells (WT EGFR) (setting [4]) was > 1000 nM; in assay [1] (HCC827 cells, 72 hr), 10 to 100 nM; in assay [3] (NCI-H1975, H1975 cells, 72 hr) it was 100 to 500 nM. Also, the “Ratio WT/mutant (H1975)” value in assay [2] is reported as >30.

As for `C=CC(=O)Nc1cccc(Oc2nc(Nc3ccc(N4CCOCC4)cc3OC(F)F)ncc2C(F)(F)F)c1` [Compound I-13, N-(3-(2-(2-(difluoromethoxy)-4-morpholinophenylamino)-5-(trifluoromethyl)pyrimidin-4-yloxy)phenyl)acrylamide], the GI50 in the assay on A431 cells (WT EGFR) (setting [4]) is > 1000 nM; in assay [1] (HCC827 cells, 72 hr) it was 10 to 100 nM; in assay [3] (NCI-H1975, H1975 cells, 72 hr), 100 to 500 nM.

As for `C=CC(=O)Nc1cccc(Oc2nc(Nc3ccc(N4CCN(C(=O)OC(C)(C)C)CC4)cc3OCC)ncc2Cl)c1` [Compound I-18, tert-butyl 4-(4-(4-(3-acrylamidophenoxy)-5-chloropyrimidin-2-ylamino)-3-ethoxyphenyl)piperazine-1-carboxylate], the GI50 in the assay on A431 cells (WT EGFR) (setting [4]) was > 1000 nM; in assay [1] (HCC827 cells, 72 hr) it was 100 to 500 nM; in assay [3] (NCI-H1975, H1975 cells, 72 hr), 500 to 1000 nM.

For `C=CC(=O)Nc1cccc(Nc2nc(Nc3ccc(N4CCCN(C(=O)C(F)(F)F)CC4)cc3OC)ncc2C(F)(F)F)c1` [Compound I-19, N-(3-(2-(2-methoxy-4-(4-(2,2,2-trifluoroacetyl)-1,4-diazepan-1-yl)phenylamino)-5-(trifluoromethyl)pyrimidin-4-ylamino)phenyl)acrylamide], the GI50 in the assay on A431 cells (WT EGFR) (setting [4]) was > 1000 nM; in assay [1] (HCC827 cells, 72 hr) it was 100 to 500 nM; in assay [3] (NCI-H1975, H1975 cells, 72 hr) it was 100 to 500 nM.

Regarding `C=CC(=O)Nc1cccc(Nc2nc(Nc3ccc(N4CCCOCC4)cc3OC)ncc2C(F)(F)F)c1` [Compound I-38, N-(3-(2-(2-methoxy-4-(1,4-oxazepan-4-yl)phenylamino)-5-(trifluoromethyl)pyrimidin-4-ylamino)phenyl)acrylamide], the 50% growth inhibitory concentration (GI50) was > 1000 nM in the assay with A431 cells (WT EGFR) (setting [4]); 500 to 1000 nM in assay [1] (HCC827 cells, 72 hr); > 1000 nM in assay [3] (NCI-H1975, H1975 cells, 72 hr).

Turning to `C=CC(=O)Nc1cccc(Oc2nc(Nc3ccc(N4CCCN(C(=O)OC(C)(C)C)CC4)cc3OC)ncc2C(F)(F)F)c1` [Compound I-39, tert-butyl 4-(4-(4-(3-acrylamidophenoxy)-5-(trifluoromethyl)pyrimidin-2-ylamino)-3-methoxyphenyl)-1,4-diazepane-1-carboxylate], the 50% growth inhibitory concentration (GI50) was > 1000 nM with A431 cells (WT EGFR) (setting [4]); > 1000 nM in assay [1] (HCC827 cells, 72 hr); > 1000 nM in assay [3] (NCI-H1975, H1975 cells, 72 hr).

In the case of `C=CC(=O)Nc1cccc(Oc2nc(Nc3ccc(N4CCN(S(N)(=O)=O)CC4)cc3OC)ncc2C(F)(F)F)c1` [Compound I-27, N-(3-(2-(2-methoxy-4-(4-sulfamoylpiperazin-1-yl)phenylamino)-5-(trifluoromethyl)pyrimidin-4-yloxy)phenyl)acrylamide], the concentration for 50% growth inhibition (GI50) in the assay on A431 cells (WT EGFR) (setting [4]) was > 1000 nM; in assay [1] (HCC827 cells, 72 hr) it was 10 to 100 nM; in assay [3] (NCI-H1975, H1975 cells, 72 hr), 100 to 500 nM.

On to `C=CC(=O)Nc1cccc(Nc2nc(Nc3ccc(N4CCN(C(=O)OC(C)(C)C)[C@H](C(=O)OC)C4)cc3OC)ncc2C(F)(F)F)c1` [Compound I-50, (S)-1-tert-butyl 2-methyl 4-(4-(4-(3-acrylamidophenylamino)-5-(trifluoromethyl)pyrimidin-2-ylamino)-3-methoxyphenyl)piperazine-1,2-dicarboxylate], for which the GI50 in the assay on A431 cells (WT EGFR) (setting [4]) is > 1000 nM; in assay [1] (HCC827 cells, 72 hr), 10 to 100 nM; in assay [3] (NCI-H1975, H1975 cells, 72 hr), 100 to 500 nM.

Regarding `C=CC(=O)Nc1cccc(Oc2nc(Nc3ccc(N4CCN(C(=O)CC(C)(C)C)CC4)cc3OC)ncc2Cl)c1` [Compound I-23, N-(3-(5-chloro-2-(4-(4-(3,3-dimethylbutanoyl)piperazin-1-yl)-2-methoxyphenylamino)pyrimidin-4-yloxy)phenyl)acrylamide], the concentration for 50% growth inhibition (GI50) in the assay with A431 cells (WT EGFR) (setting [4]) is > 1000 nM; in assay [1] (HCC827 cells, 72 hr) it was 100 to 500 nM; in assay [3] (NCI-H1975, H1975 cells, 72 hr) it was 500 to 1000 nM.

In the case of `C=CC(=O)Nc1cccc(Oc2nc(Nc3ccc(N4CCOCC4)cc3OC(F)F)ncc2Cl)c1` [Compound I-36, N-(3-(5-chloro-2-(2-(difluoromethoxy)-4-morpholinophenylamino)pyrimidin-4-yloxy)phenyl)acrylamide], the GI50 is > 1000 nM with A431 cells (WT EGFR) (setting [4]); 10 to 100 nM in assay [1] (HCC827 cells, 72 hr); 100 to 500 nM in assay [3] (NCI-H1975, H1975 cells, 72 hr).

For the compound `C=CC(=O)Nc1cccc(Oc2nc(Nc3ccc(N4CCN(C(=O)OC)CC4)cc3OC)ncc2C(F)(F)F)c1` [Compound I-20, methyl 4-(4-(4-(3-acrylamidophenoxy)-5-(trifluoromethyl)pyrimidin-2-ylamino)-3-methoxyphenyl)piperazine-1-carboxylate], the concentration for 50% growth inhibition (GI50) in the assay with A431 cells (WT EGFR) (A-431, 72 h, read-out: WT EGFR GI50) was > 1000 nM; in assay [1] (HCC827, 72 h), 100 to 500 nM; in assay [3] (NCI-H1975, 72 h) it was 100 to 500 nM.

Regarding `C=CC(=O)Nc1cccc(Oc2nc(Nc3ccc(N4CCN(C(C)=O)CC4)cc3OC)ncc2Cl)c1` [Compound I-9, N-(3-(2-(4-(4-acetylpiperazin-1-yl)-2-methoxyphenylamino)-5-chloropyrimidin-4-yloxy)phenyl)acrylamide], the 50% growth inhibitory concentration (GI50) with A431 cells (WT EGFR) (setting [4]) is > 1000 nM; in assay [1] (HCC827 cells, 72 hr), 10 to 100 nM; in assay [3] (NCI-H1975, H1975 cells, 72 hr), 100 to 500 nM.

For `CCOc1cc2ncc(C#N)c(Nc3ccc(OCc4ccccn4)c(Cl)c3)c2cc1NC(=O)/C=C/CN(C)C` [HKI-272, reference compound], the GI50 in the assay on A431 cells (WT EGFR) (A-431, read-out: Comparative GI50 Values, A431) was 4 nM.

In the case of `C=CC(=O)Nc1cccc(Nc2nc(Nc3ccc(N4CCN(C(=O)NC)CC4)cc3OC)ncc2C(F)(F)F)c1` [Compound I-28, 4-(4-(4-(3-acrylamidophenylamino)-5-(trifluoromethyl)pyrimidin-2-ylamino)-3-methoxyphenyl)-N-methylpiperazine-1-carboxamide], the 50% growth inhibitory concentration (GI50) in the assay on A431 cells (WT EGFR) (setting [4]) was > 1000 nM; in assay [1] (HCC827 cells, 72 hr) it was 10 to 100 nM; in assay [3] (NCI-H1975, H1975 cells, 72 hr), 500 to 1000 nM.

Turning to `C=CC(=O)Nc1cccc(Nc2nc(Nc3ccc(N4CCN(C(=O)OC)CC4)cc3OC)ncc2C(F)(F)F)c1` [Compound I-29, methyl 4-(4-(4-(3-acrylamidophenylamino)-5-(trifluoromethyl)pyrimidin-2-ylamino)-3-methoxyphenyl)piperazine-1-carboxylate], the GI50 was > 1000 nM in the assay with A431 cells (WT EGFR) (setting [4]); 10 to 100 nM in assay [1] (HCC827 cells, 72 hr); 10 to 100 nM in assay [3] (NCI-H1975, H1975 cells, 72 hr).

As for `C=CC(=O)Nc1cccc(Nc2nc(Nc3ccc(N4CCN(C(=O)CC)CC4)cc3OC)ncc2C(F)(F)F)c1` [Compound I-35, N-(3-(2-(2-methoxy-4-(4-propionylpiperazin-1-yl)phenylamino)-5-(trifluoromethyl)pyrimidin-4-ylamino)phenyl)acrylamide], the GI50 with A431 cells (WT EGFR) (setting [4]) was > 1000 nM; in assay [1] (HCC827 cells, 72 hr), 10 to 100 nM; in assay [3] (NCI-H1975, H1975 cells, 72 hr) it was 10 to 100 nM.

(Values after US10434101B2, “Heterocyclic compounds and uses thereof” (Celgene CAR LLC, priority 2010, dated 2019).)
